Here are results for 16 compounds from patent US10556866B2, “ROR gamma (RORγ) modulators” (LEAD PHARMA HOLDING B.V., priority 2015, dated 2020).

SMILES strings stand for the structures.

In one assay the test system is IL-17A production in anti-CD3/anti-CD28 stimulated peripheral blood mononuclear cells (PBMCs). The assay is described as follows: Peripheral blood mononuclear cell (PBMC) IL-17 assay. It is filed as cell-based. As to conditions: 120 h, inhibition of IL-17A production, human PBMCs, 5 days, IL-17 ELISA, read-out: mean pIC50 (converted). The procedure:
Example inhibitor 5 was tested for its ability to inhibit the IL-17A production in anti-CD3/anti-CD28 stimulated peripheral blood mononuclear cells (PBMCs) isolated from human blood. The assay procedure and results are described below.
This assay is designed to measure the levels of IL-17A secreted from anti-CD3/anti-CD28 stimulated PBMCs with the aim of measuring RORγ mediated inhibition of IL-17A production.
The assay medium consists of 90% RPMI 1640 (Lonza), 10% heat inactivated fetal bovin serum (FBS, Lonza) and 100 U/mL penicillin/streptomycin solution.
Anti-CD3 antibody (BD Pharmingen) was diluted to 10 μg/ml in PBS (Lonza). 30 μL of 10 μg/ml anti-CD3 solution was added to the inner 60 wells, excluding any negative control wells, of a 96-well cell culture treated U-bottom plate (Greiner). Plates were incubated overnight (16-24 hours) at 37° C. and 5% CO2. […]
After incubation the plates were spun down at 1500 rpm for 4 minutes and the supernatant was collected. Subsequently, the IL-17A levels in the supernatants was determined using an IL-17 ELISA kit (human IL-17 DuoSet, R&D systems) according to manufacturer's protocol.
The half maximum inhibitory concentration (IC50) values for the test compounds were calculated from the IL-17A signal using GraphPad Prism software (GraphPad Software).
(In an ELISA, binding on a coated surface is turned into a signal by an enzyme label.)
As to `O=C(NCc1ccc(S(=O)(=O)CC2CC2)cc1)c1ccc(C(O)(C(F)F)C(F)(F)F)cc1` (centres unmarked) [Example 5, N-[[4-(cyclopropylmethylsulfonyl)phenyl]methyl]-4-[1-(difluoromethyl)-2,2,2-trifluoro-1-hydroxy-ethyl]benzamide], the IC50 is 100 nM.

The target of a further assay is T1, RORγ (Homo sapiens, UniProt P51449).
T1 construct: expressed in transfected cells; host or cells: 293FT cells (Invitrogen), expression vector pFN26A (Promega)
T1 sequence (P51449 269-508 limits assumed): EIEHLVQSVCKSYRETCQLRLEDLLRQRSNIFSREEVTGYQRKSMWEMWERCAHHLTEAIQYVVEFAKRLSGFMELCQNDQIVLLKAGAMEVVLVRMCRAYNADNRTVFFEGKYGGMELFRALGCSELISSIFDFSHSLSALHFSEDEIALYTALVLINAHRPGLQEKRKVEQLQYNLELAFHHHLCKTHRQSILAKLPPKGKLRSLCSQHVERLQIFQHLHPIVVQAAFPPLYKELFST
The assay can be described thus: RORγ GAL4 reporter gene assay (luciferase readout). In kind it is cell-based. Particulars: inhibition of RORγ (GAL4-RORγ-LBD) in 293FT cells, luciferase signal; read-out: mean pIC50 (converted). The procedure:
Example inhibitors 1-38 were tested for their ability to inhibit RORγ activity in a RORγ GAL4 reporter gene assay. The assay procedure and results are described below.
A GAL4 one-hybrid reporter system employing luciferase readout was established to determine inhibition of RORγ in 293FT cells. The RORγ ligand-binding domain (LBD) was fused to the yeast GAL4 DNA binding domain (DBD) and placed under the control of the human cytomegalovirus (CMV) immediate early promoter, using expression vector pFN26A (Promega) and standard recombinant DNA cloning methods. To serve as a control in the assay, a similar vector was generated in which the GAL4-DBD was fused to Herpes simplex virus protein 16 (VP16), a constitutive transcriptional activator.
To monitor the inhibitory effect of compounds on RORγ, a transcriptional reporter construct was used. The pGL4.35 vector (Promega) contains nine copies of the GAL4 Upstream Activator Sequence (UAS). This sequence drives the transcription of the luciferase reporter gene luc2P in response to binding of a fusion protein containing the GAL4 DNA binding domain, as for example expressed by the GAL4-RORγ-LBD and GAL4-VP16 expression vectors described above. To allow a GAL4 fusion protein to drive the expression of the luciferase reporter, the pGL4.35 expression vector and the appropriate GAL4 fusion protein expression vector were bulk transfected in the 293FT cells using standard transfection techniques.
The day after transfection, cells were plated into 96 well plates, test compound was added and the plates were incubated overnight. Subsequently, the firefly luciferase activity was quantified using luciferase detection reagent and luminescence readout.
293FT cells (Invitrogen) were transfected with a GAL4 fusion protein expression vector (as described above) and the transcriptional reporter construct (pGL4.35, Promega). 60 μL of TransIT-293 transfection reagent (Mirus Bio) was added drop wise to 1500 μl Opti-MEM I Reduced Serum Medium (Invitrogen) and incubated at RT (RT) for 5 to 20 minutes. 1500 μL of this reagent mixture was added to 5 μg of GAL4 fusion protein expression vector and 5 μg of the transcriptional reporter construct, and incubated at RT for 20 minutes.
To harvest 293FT cells from a T75 flask, first the culture medium was taken off the cells. Subsequently, the cells were washed with Phosphate Buffered Saline (PBS) (Lonza), after which the PBS was removed. To dissociate the cells, 1 ml of TrypLE Express (Invitrogen) was added to the flask, followed by incubation at RT until the cells visually started to detach. Cells were collected in 5 mL of assay medium (DMEM culture medium (Lonza), 10% dialyzed FBS (Invitrogen) and Pen/Strep (Lonza)) to achieve a single cell suspension. 10×10^6 cells were spun down and re-suspended in 10 mL of assay medium. Subsequently, the cell suspension was added to the transfection mix tube, and then transferred as a whole to a T75 flask (Greiner), followed by overnight (16-24 hours) incubation at 37° C. and 5% CO2.
For compound screening, the cells were harvested (as described above) and counted. 13×10^6 cells were spun down, the supernatant was aspirated and the cells were re-suspended in 17.3 mL of assay medium obtaining a cell suspension of 0.75×10^6 cells/mL. 80 μL of cell suspension (60,000 cells) was plated per well into a white, flat bottom, tissue culture treated, 96 well screening plates (Greiner).
Test compounds were diluted, starting from a 10 mM dimethylsulfoxide (DMSO) stock solution, to serial dilutions in DMSO at 500× the final test concentration. Subsequently, these solutions were diluted to 5× the final test concentration in two 10-fold-dilution steps in assay medium. The final DMSO concentration of the 5× test compound solution was 1%. 20 μL of the 5× test compound solution was added to each test well of the 96 well plate previously plated with 80 μl cell suspension, resulting in the final test concentration with 0.2% DMSO. […]
On to `O=C(NCc1ccc(S(=O)(=O)CC2CC2)cc1)c1ccc(C(O)(C(F)F)C(F)(F)F)cc1` (centres unmarked) [Example 5, N-[[4-(cyclopropylmethylsulfonyl)phenyl]methyl]-4-[1-(difluoromethyl)-2,2,2-trifluoro-1-hydroxy-ethyl]benzamide], for which the IC50 was at most 1000 nM.

Turning to `CCCOC(c1ccc(C(=O)NCc2ccc(S(=O)(=O)CC3CC3)cc2)cc1)(C(F)(F)F)C(F)(F)F` [Example 24, N-[[4-(cyclopropylmethylsulfonyl)phenyl]methyl]-4-[2,2,2-trifluoro-1-propoxy-1-(trifluoromethyl)ethyl]benzamide], the IC50 is at most 100 nM.

As for `CCCCOC(c1ccc(C(=O)NCc2ccc(S(=O)(=O)CC3CC3)cc2)cc1)(C(F)(F)F)C(F)(F)F` [Example 25, 4-[1-butoxy-2,2,2-trifluoro-1-(trifluoromethyl)ethyl]-N-[[4-(cyclopropylmethylsulfonyl)phenyl]methyl]benzamide], the IC50 was at most 100 nM.

With `CC(C)OC(c1ccc(C(=O)NCc2ccc(S(=O)(=O)CC3CC3)cc2)cc1)(C(F)(F)F)C(F)(F)F` [Example 26, N-[[4-(cyclopropylmethylsulfonyl)phenyl]methyl]-4-[2,2,2-trifluoro-1-isopropoxy-1-(trifluoromethyl)ethyl]benzamide], the IC50 is at most 100 nM.

Consider `O=C(NCc1ccc(S(=O)(=O)CC2CC2)cc1)c1ccc(C(OCc2ccccc2)(C(F)(F)F)C(F)(F)F)cc1` [Example 27, 4-[1-benzyloxy-2,2,2-trifluoro-1-(trifluoromethyl)ethyl]-N-[[4-(cyclopropylmethylsulfonyl)phenyl]methyl]benzamide], for which the IC50 is at most 1000 nM.

With `COC(c1ccc(C(=O)NCc2ccc(S(=O)(=O)CC3CC3)cc2C)cc1)(C(F)(F)F)C(F)(F)F` [Example 28, N-[[4-(cyclopropylmethylsulfonyl)-2-methyl-phenyl]methyl]-4-[2,2,2-trifluoro-1-methoxy-1-(trifluoromethyl)ethyl]benzamide], the IC50 was at most 100 nM.

On to `CCOC(c1ccc(C(=O)NCc2ccc(S(=O)(=O)CC3CC3)cc2C)cc1)(C(F)(F)F)C(F)(F)F` [Example 29, N-[[4-(cyclopropylmethylsulfonyl)-2-methyl-phenyl]methyl]-4-[1-ethoxy-2,2,2-trifluoro-1-(trifluoromethyl)ethyl]benzamide], for which the IC50 is at most 100 nM.

Consider `COC(c1ccc(C(=O)NCc2ccc(S(=O)(=O)NC3CC3)cc2)cc1)(C(F)(F)F)C(F)(F)F` [Example 30, N-[[4-(cyclopropylsulfamoyl)phenyl]methyl]-4-[2,2,2-trifluoro-1-methoxy-1-(trifluoromethyl)ethyl]benzamide], for which the IC50 was at most 1000 nM.

Regarding `CCOC(c1ccc(C(=O)NCc2ccc(S(=O)(=O)NC3CC3)cc2)cc1)(C(F)(F)F)C(F)(F)F` [Example 31, N-[[4-(cyclopropylsulfamoyl)phenyl]methyl]-4-[1-ethoxy-2,2,2-trifluoro-1-(trifluoromethyl)ethyl]benzamide], the IC50 was at most 1000 nM.

Turning to `CCCOC(c1ccc(C(=O)NCc2ccc(S(=O)(=O)NC3CC3)cc2)cc1)(C(F)(F)F)C(F)(F)F` [Example 32, N-[[4-(cyclopropylsulfamoyl)phenyl]methyl]-4-[2,2,2-trifluoro-1-propoxy-1-(trifluoromethyl)ethyl]benzamide], the IC50 is at most 1000 nM.

Turning to `COC(CC(C)(C)C)(c1ccc(C(=O)NCc2ccc(S(=O)(=O)CC3CC3)cc2)cc1)C(F)(F)F` (centres unmarked) [Example 33, N-[[4-(cyclopropylmethylsulfonyl)phenyl]methyl]-4-[1-methoxy-3,3-dimethyl-1-(trifluoromethyl)butyl]benzamide], the IC50 is at most 100 nM.

With `C[C@@H](NC(=O)c1ccc(C(O)(C(F)(F)F)C(F)(F)F)cc1)c1ccc(S(=O)(=O)CC2CC2)cc1` [Example 34, N-[(1R)-1-[4-(cyclopropylmethylsulfonyl)phenyl]ethyl]-4-[2,2,2-trifluoro-1-hydroxy-1-(trifluoromethyl)ethyl]benzamide], the IC50 was below 10000 nM.

Regarding `C[C@H](NC(=O)c1ccc(C(O)(C(F)(F)F)C(F)(F)F)cc1)c1ccc(S(=O)(=O)CC2CC2)cc1` [Example 35, N-[(1S)-1-[4-(cyclopropylmethylsulfonyl)phenyl]ethyl]-4-[2,2,2-trifluoro-1-hydroxy-1-(trifluoromethyl)ethyl]benzamide], the IC50 was at most 1000 nM.

As for `Cc1cc(C(O)(c2ccc(C(=O)NCc3ccc(S(=O)(=O)CC4CC4)cc3)cc2)C(C)C)no1` (centres unmarked) [Example 36, N-[[4-(cyclopropylmethylsulfonyl)phenyl]methyl]-4-[1-hydroxy-2-methyl-1-(5-methylisoxazol-3-yl)propyl]benzamide], the IC50 is at most 100 nM.

Turning to `Cc1cc(C(O)(c2ccc(C(=O)NCc3ccc(S(=O)(=O)CC4CC4)cc3)cc2)C2CC2)no1` (centres unmarked) [Example 37, 4-[cyclopropyl-hydroxy-(5-methylisoxazol-3-yl)methyl]-N-[[4-(cyclopropylmethylsulfonyl)phenyl]methyl]benzamide], the IC50 was at most 1000 nM.

Turning to `Cc1cc(C(O)(c2ccc(C(=O)NCc3ccc(S(=O)(=O)CC4CC4)cc3)cc2)C(C)(C)C)no1` (centres unmarked) [Example 38, N-[(4-(cyclopropylmethylsulfonyl)phenyl)methyl]-4-[1-hydroxy-2,2-dimethyl-1-(5-methylisoxazol-3-yl)propyl]benzamide], the IC50 was at most 100 nM.
